We go through five compounds from patent US5288718A, “Method for decorporating radioactive isotope from living organism” (priority 1989, dated 1994).

For data set [1] the following is noted: Ca^2+ compared with Sr^2+; cited from earlier work.
The next data set is described as follows: Hygroscopicity. The data set is classed as physicochemical. As to conditions: sodium salt versus lithium salt.
Data set [2] is described as follows: Lethal dose determination, intravenous, mortality within 30 days. As to conditions: in vivo, DMCRYP salt×NaBr (x=2.5-8) as prepared according to Example I. As for the experimental part: Healing power of the composition has been evidenced by animal tests. In this way, the minimum and average lethal doses (LD0.1 and LD50, respectively) have been established.
For the determination of lethal doses, the active ingredient was administered intravenously at increasing concentrations to the animals. Minimum and average lethal doses were calculated from the mortality within 30 days. […] On every occasion, one tenth of this dose was introduced into each animal in this experiment.

The nature of another data set: Water solubility. The data set is classed as physicochemical. To be noted: product of Example 1.
A short description of data set [3]: Whole-body retention of Sr-85 introduced into the peritoneal cavity, mice (FIG. 1). The data set is classed as in vivo, Swiss mice. To be noted: equimolar concentration, isotope in peritoneal cavity. An excerpt:
(§1) In order to test the effect of DMCRYP on enhancing the decorporation of radiostroncium and the rare earth metal radiocerium from the body, male and female Swiss mice and Wistar rats were selected. […] In the comparative tests, a known polyaminopolycarboxylic acid-type decorporant (decorporating agent), calcium-trisodium salt of DTPA (diethylenetriaminopentacetic acid) (Heyl and Co., Berlin) was used at equimolar concentration. The amount of residual isotopes in the animal organisms was determined by whole-body activity measurements in every 1 to 4 days and was expressed as per cent of activity introduced.

Data set [4] in a line: Whole-body retention of Sr-85 introduced into the peritoneal cavity, female Wistar rats (FIG. 2, Example 2). The data set is classed as in vivo. As to conditions: equimolar concentration.
From the text: as §1

Data set [5] can be described thus: Whole-body retention of radiostroncium in skin or subcutaneous interstitial tissues (FIG. 3, Example 3). As to conditions: subcutaneous/skin isotope. The data set is classed as in vivo.
From the text: as §1

Data set [6] in a line: Whole-body retention of cerium-144 introduced peritoneally (FIG. 6, Example 6). The data set is classed as in vivo. To be noted: female Swiss mice.
From the text: as §1
Treatments were repeated twice, on the Days 2 and 4.

For data set [7] the following is noted: with increasing atomic number (decreasing ionic size); cited from earlier work.

Where a name gives a salt, the structure may show the parent alone.

`O=C(O)CN(CCN(CC(=O)O)CC(=O)O)CC(=O)O` [EDTA, ethylenediaminetetraacetic acid]: the “Relative stability of Ca^2+ and Sr^2+ complexes” value (from here on “Relative stability”) in data set [1] is “considerably more stable with Ca^2+ than with Sr^2+”.
Take `O=C(O)C(C(=O)O)N1CCOCCOCCN(C(C(=O)O)C(=O)O)CCOCCOCC1` [lithium salt]: the Hygroscopicity result in the data set “Hygroscopicity” was “hygroscopic”.
With `O=C(O)C(C(=O)O)N1CCOCCOCCN(C(C(=O)O)C(=O)O)CCOCCOCC1` [DMCRYP, 1,4,10,13-tetraoxa-7,16-diazacyclooctadecane-N,N'-dimalonic acid tetrasodium salt], the LD50 (as a rule, the dose at which mortality reaches 50%) at 720 h in data set [2] turned out to be 1050 µmol/kg. The Water solubility result in “Water solubility” is given as “very soluble”. In addition, the Hygroscopicity result in “Hygroscopicity” (listed as sodium salt) is listed as “not hygroscopic”.
As for `O=C(O)CN(CCN(CC(=O)O)CC(=O)O)CCN(CC(=O)O)CC(=O)O` [DTPA, diethylenetriaminopentacetic acid], in [3], the “Removal of Sr isotope from the animal body” value is “ineffective”. Further, the “Retention values compared to control” value in [4] was “lower than those in the control but the difference was not statistically significant”. For the same compound, the “Effect of treatment on whole-body retention” value in [5] was “ineffective”. Further, in data set [6] (Day 2, after first treatment, 100 μmole/kg i.v. 30 minutes after isotope, control 85.9), the “Whole-body retention of cerium-144” value is given as 72.8%. Moreover, the “Effect of second and third treatments” value in [6] (100 μmole/kg, Days 2 and 4) is “ineffective”. In addition, the “Relative stability” value in [1] was “considerably more stable with Ca^2+ than with Sr^2+”.
In the case of `O=C(O)CN1CCOCCOCCN(CC(=O)O)CCOCCOCC1` [1,10-diaza-4,7,13,16-tetraoxacyclooctadecane-N,N'-diacetic acid], the “Stability constants of rare earth metal complexes, trend” value in data set [7] is reported as “decrease with the increasing atomic number”. The “Relative stability” value in data set [1] was “identical within the experimental error”.
